One assay has as its system AMPK in Huh-7 cells. As to the kind of experiment: Activation activity on AMPK in Huh-7 cells (Western Blot). Conditions: 12 h, relative to DMSO = 1. Type of assay: cell-based. The protocol:
The activation activity of a compound on AMPK in Huh-7 cells was detected by using Western Blot.
Cell culture conditions: Huh-7 cells were cultured in an incubator with 5% CO2 at 37° C. in DMEM complete medium (containing 10% fetal calf serum and 1% streptomycin/penicillin).
Antibody: anti-AMPK (CST, 2532S); anti-pAMPK (CST, 2535S).
Western Blot experiment: the influence of the compound on phosphorylation level of the AMPK in the Huh-7 cells was detected: cells with more than 90% cells alive were taken for the experiment. In a 12-well plate, the Huh-7 cells were plated in the plate at 250000 cells per well, the plate was placed in the incubator with 5% CO2 at 37° C. for culture, an original culture medium was discarded after 12 h, a complete medium containing the pentacyclic triterpenoid saponin was added, a final concentration of subject pentacyclic triterpenoid saponin was set to be 10 μM, and an administration time was set to be 12 h. A positive control compound employs AICAR (100 μM), metformin (70 μM) or A-769662 (100 μM). Then proteins were extracted for Western Blot detection.
Experimental result: a Western Blot experimental result was subjected to gray scale scanning, a p-AMPK/AMPK ratio of negative control DMSO was defined as 1, and a p-AMPK/AMPK ratio of the subject compound was a relative ratio of a negative control group. The larger the numerical value was, the stronger the activation activity of the AMPK of the compound was.

The test system of assay [1] is ulcerative colitis model mice induced by DSS. As to the kind of experiment: Dextran sulphate sodium salt (DSS) induced ulcerative colitis model mice. The settings on record: DSS-induced mice; dose not given; vs model group. Type of assay: in vivo, mouse. How it is done: C57BL/6 male mice with 6-8 weeks old were selected; a control group was fed with purified water; and a model group, a treatment group and a positive control group were fed with purified water containing 2% dextran sulphate sodium salt (DSS) (36000-50000 M.Wt) for 7 days and then with the purified water for 3 days, and drug intervention was conducted at the same time. The mice in the control group and the model group were orally administered with carboxymethyl cellulose sodium as a placebo, the mice in the treatment group were orally administered with the ziyuglycoside II (purchased from Shanghai Boka Chemistry Technology Co., Ltd) (with a dosage of 5 mg/kg), and the mice in the positive control group were orally administered with 5-aminosalicylic acid as a clinical drug (5-ASA, purchased from Shanghai Sangon Biological Engineering Co., Ltd) (with a dosage of 100 mg/kg). In the administration process, weight changes, feces characters and hematochezia conditions of the mice were observed and recorded every day and were scored, and disease activity indexes were calculated (Disease activity index, DAI).
A scoring rule and a calculation method were as follows: DAT=(weight score+diarrhea score+occult blood score)/3, wherein weight score: 0 (weight gained or unchanged), 1 (weight lost by 1-5%), 2 (weight lost by 6-10%), 3 (weight lost by 11-15%), 4 (weight lost by 15% or above); diarrhea score: 0 (normal feces), 2 (soft feces), 4 (feces sticking anuses or diarrhea); and occult blood score: 0 (negative occult blood), 2 (positive occult blood), and 4 (visible bleeding). Comparing differences in DAI of various groups, it can be known that the ziyuglycoside II has significant prevention and treatment effects on ulcerative colitis of the mice modeled by the dextran sulphate sodium salt (DSS).
The above mice were sacrificed by cervical dislocation at day 11, colon tissues were harvested, lengths of the colon tissues were measured for statistical summary, and differences in colon length of various groups were compared, from which, the ziyuglycoside II has significant prevention and treatment effect on the ulcerative colitis model mice.
Middle segments, with lengths of about 1 cm, of the colon tissues of the above mice were selected, soaked in a formalin solution for fixing overnight, embedded with paraffin and sliced, and the slices were subjected to HE staining. […] Particularly, compared with the positive drug group, the ziyuglycoside II has the advantage of maintaining a thickness of a muscular layer.
10 mg of proximal rectum segments of the colon tissues of the above mice were selected, PBS was added for homogenization, and centrifugation was conducted for taking a supernate. The supernate was subjected to ELISA detection, and protein quantification was conducted for inflammatory factors TNF-α and IL-lb.
10 mg of colon tissues of the above mice were selected for detection of ROS therein.
When the ulcerative colitis occurs, the inflammatory factors may destruct tight junction between intestinal tracts, and destruction of the tight junction enables functions of mucosal barriers to be lost and accelerates development of the diseases. 5 mg of colon tissues of the above mice were selected for qPCR analysis. […] This hints that the ziyuglycoside II further has the efficacy of increasing the expression level of the tight junction and then protecting a structure of each colon. […] Therefore, the ziyuglycoside II is expected to be useful for preparing the drug for preventing or treating the inflammatory bowel diseases such as the ulcerative colitis.

The subject of assay [2] is TNBS modeled Crohn's disease model mice. As to the kind of experiment: 2,4,6-trinitrobenzene sulfonic acid (TNBS) modeled Crohn's disease model mice. Type of assay: in vivo, mouse. The settings on record: dose not given. How it is done:
C57BL/6 male mice with 6-8 weeks old were selected and randomly divided into a control group, a mode group, a treatment group and a positive control group. Expect for the control group, after the mice in the rest groups anesthetized with isoflurane, hoses were carefully inserted into colons of the mice from anuses, and […] of 1.5% 2,4,6-trinitrobenzene sulfonic acid (TNBS) was slowly injected. Before the hoses were pulled out, the mice were placed upside down for 1 min. First intragastric administration was conducted at the day of enema treatment, the mice in the control group and the model group were orally administered with carboxymethyl cellulose sodium as a placebo, the mice in the treatment group were orally administered with the ziyuglycoside II (purchased from Shanghai Boka Chemistry Technology Co., Ltd) (with a dosage of 5 mg/kg), and the mice in the positive drug group were orally administered with 5-aminosalicylic acid as a clinical drug (5-ASA, purchased from Shanghai Sangon Biological Engineering Co., Ltd) (with a dosage of 100 mg/kg). Administration was continuously conducted for 7 days. In the administration process, the states of the mice were observed every day, and weight changes of the mice were recorded.
Differences in weight change of the mice in various groups were compared, from which, ziyuglycoside II has the treatment effect on the 2, 4, 6-trinitrobenzene sulfonic acid (TNBS) modeled Crohn's disease model mice.
The above mice were sacrificed by cervical dislocation at day 8, colon tissues were harvested, lengths of the colon tissues were measured for statistical summary, and differences in colon length of various groups were compared, from which, the ziyuglycoside II has significant treatment effect on the Crohn's disease model mice. […] 10 mg of proximal rectum segments of the colon tissues of the above mice were selected, PBS was added for homogenization, and centrifugation was conducted for taking a supernate. The supernate was subjected to ELISA detection, and protein quantification was conducted for inflammatory factors TNF- and IL-1. […] Myeloperoxidase (MPO) is an enzyme specific to neutrophils, and the amount of the neutrophils in the intestinal tracts may be reflected by detecting the MPO level. 5 mg of proximal rectum segments of the colon tissues of the above mice were selected, PBS was added for homogenization, and the content of the MPO in a homogenate was detected with a MPO kit (purchased from Nanjing Jiancheng Bioengineering Institute). […] Therefore, the ziyuglycoside II is expected to be useful for preparing the drug for preventing or treating the inflammatory bowel diseases such as the Crohn's disease.

On to `CC1(C)CC[C@]2(C(=O)O)CC[C@]3(C)C(=CCC4[C@@]5(C)CC[C@H](O[C@@H]6O[C@H](C(=O)O)[C@@H](O)[C@H](O)[C@H]6O)C(C)(C)[C@@H]5CC[C@]43C)[C@@H]2C1` (stereo partly shown) [(III), calunduloside E], for which the pAMPK/AMPK ratio in the assay on AMPK in Huh-7 cells (10 μM, Western Blot gray scale) was 1.54. The same measure, in the same setting: the same measure for `CC1(C)CC[C@]2(C(=O)O)CC[C@]3(C)C(=CC[C@@H]4[C@@]5(C)CC[C@H](O[C@@H]6O[C@H](C(=O)O)[C@@H](O)[C@H](O[C@@H]7OC[C@@H](O)[C@H](O)[C@H]7O)[C@H]6O)C(C)(C)[C@@H]5CC[C@]43C)[C@@H]2C1` [(IV), kochioside Ic]: 1.75; for `CC1(C)CC[C@]2(C(=O)O)CC[C@]3(C)C(=CCC4[C@@]5(C)CC[C@H](O[C@@H]6OC[C@H](O)[C@H](O)[C@H]6O)C(C)(C)[C@@H]5CC[C@]43C)[C@@H]2C1` (stereo partly shown) [(XIV), asperosaponin C]: 2.23. Turning to `C[C@@H]1OC(O[C@H]2[C@H](O[C@H]3CC[C@]4(C)[C@H]5CC=C6[C@@H]7CC(C)(C)CC[C@]7(C(=O)O)CC[C@@]6(C)[C@]5(C)CC[C@H]4C3(C)C)OC[C@H](O)[C@@H]2O)[C@H](O)[C@H](O)[C@H]1O` (stereo partly drawn) [(XV), β-hederin], the pAMPK/AMPK ratio with AMPK in Huh-7 cells (10 μM, Western Blot gray scale) came to 2.87. As for `CC1(C)CC[C@]2(C(=O)O)CC[C@]3(C)C(=CC[C@@H]4[C@@]5(C)CC[C@H](O[C@@H]6O[C@H](CO)[C@@H](O)[C@H](O)[C@H]6O)C(C)(C)C5CC[C@]43C)[C@H]2C1` (stereo partly shown) [(XVI), hederin A2], in the assay on AMPK in Huh-7 cells (10 μM, Western Blot gray scale), the pAMPK/AMPK ratio worked out at 2.05. In the case of `NC(=O)c1ncn([C@@H]2O[C@H](CO)[C@@H](O)[C@H]2O)c1N` [AICAR, reference compound], the pAMPK/AMPK ratio with AMPK in Huh-7 cells (positive control 100 μM) amounted to 1.47. As for `N#Cc1c(O)c2c(-c3ccc(-c4ccccc4O)cc3)csc2[nH]c1=O` [Compound A-769662, A-769662, reference compound], the pAMPK/AMPK ratio with AMPK in Huh-7 cells (positive control 100 μM) turned out to be 2.59. `CN(C)C(=N)N=C(N)N` [Metformin, reference compound]: the pAMPK/AMPK ratio with AMPK in Huh-7 cells (positive control 70 μM) amounted to 1.22. Take reinioside C [(IX)]: the “DAI scores of the treatment group” value in assay [1] is recorded as “obviously lower than those of the model group”. In addition, the pAMPK/AMPK ratio in the assay on AMPK in Huh-7 cells (10 μM, Western Blot gray scale) came to 1.88. Moreover, in assay [2], the “colon length of the treatment group compared with the control group” value was “nearly no difference”. In assay [2] (vs model group), the “expression level of inflammatory factor IL-1β” value is listed as “significantly lower than those of the model group” and the “expression level of inflammatory factor TNF-α” value is “significantly lower than those of the model group”.
